Data from ChEMBL document CHEMBL1275379, “Indazolylpyrazolopyrimidine as highly potent B-Raf inhibitors with in vivo activity” (J Med Chem, 2010).
pIC50: −log10 of the molar value. Calls of active or inactive are those of the source. The rule behind the calls is not given here.

What was measured:
[1] = test system: A-375; test: Growth inhibition of human A375 cells after 4 days by MTT assay; assay type: functional, cell-based; conditions: A-375, 96 h
[2] = molecular target: T1, Tyrosine-protein kinase ABL1 (Homo sapiens, UniProt P00519); test: Inhibition of ABL1 at 1 uM
[3] = molecular target: RAC-alpha serine/threonine-protein kinase (Homo sapiens) (UniProt P31749); test: Inhibition of AKT1 at 1 uM
[4] = Drug level in tumor tissue of human A375 cells xenografted nude mouse at 25 mg/kg, po after 24 hrs; assay type: ADME, organism-based, Neoplasm, A-375; set-up: dose 25 mg/kg, route oral; conditions: read-out: Drug uptake
[5] = molecular target: Mast/stem cell growth factor receptor Kit (Homo sapiens) (UniProt P10721); test: Inhibition of KIT at 1 uM
[6] = molecular target: Cyclin-dependent kinase 1/cyclin B (Homo sapiens) (UniProt P06493+P14635+Q8WWL7+O95067); test: Inhibition of CDK1/cyclin B at 1 uM; assay type: protein-complex assay
[7] = molecular target: Protein kinase C alpha (Homo sapiens) (UniProt P17252); test: Inhibition of PRKCA at 1 uM
[8] = molecular target: RAC-beta serine/threonine-protein kinase (Homo sapiens) (UniProt P31751); test: Inhibition of AKT2 at 1 uM
[9] = molecular target: Platelet-derived growth factor receptor alpha (Homo sapiens) (UniProt P16234); test: Inhibition of PDGFRA at 1 uM
[10] = molecular target: Mitogen-activated protein kinase 3 (Homo sapiens) (UniProt P27361); test: Inhibition of MAPK3 at 1 uM
[11] = molecular target: Fibroblast growth factor receptor 1 (Homo sapiens) (UniProt P11362); test: Inhibition of FGFR1 at 1 uM
[12] = molecular target: Protein kinase C gamma type (Homo sapiens) (UniProt P05129); test: Inhibition of PRKCG at 1 uM
[13] = Inhibition of RPS6K at 1 uM
[14] = molecular target: Ephrin type-A receptor 1 (Homo sapiens, UniProt P21709); test: Inhibition of EPHA1
[15] = molecular target: RAF proto-oncogene serine/threonine-protein kinase (Homo sapiens, UniProt P04049); conditions: 1 uM
Description: Inhibition of C-raf at 1 uM

[16] = molecular target: T2, Angiopoietin-1 receptor (Homo sapiens, UniProt Q02763); conditions: 1 uM
Description: Inhibition of TEK at 1 uM

[17] = molecular target: T3, Epidermal growth factor receptor (Homo sapiens, UniProt P00533); conditions: 1 uM
Description: Inhibition of EGFR at 1 uM

[18] = molecular target: Protein kinase C beta type (Homo sapiens) (UniProt P05771); test: Inhibition of PRKCB1 at 1 uM
[19] = Oral bioavailability in nude mouse at 10 mg/kg; assay type: ADME, organism-based; conditions: in vivo, read-out: Activity
[20] = Half life in nude mouse; assay type: ADME, organism-based; conditions: in vivo
[21] = molecular target: Hepatocyte growth factor receptor (Homo sapiens) (UniProt P08581); test: Inhibition of MET at 1 uM
[22] = molecular target: Insulin-like growth factor 1 receptor (Homo sapiens) (UniProt P08069); test: Inhibition of IGF1R at 1 uM
[23] = molecular target: Tyrosine-protein kinase Yes (Homo sapiens, UniProt P07947); test: Inhibition of YES1
[24] = molecular target: Vascular endothelial growth factor receptor 1 (Homo sapiens) (UniProt P17948); test: Inhibition of FLT1 at 1 uM
[25] = Half life in human liver microsomes; assay type: ADME, Microsome
[26] = molecular target: Cyclin-dependent kinase 2/cyclin A (Homo sapiens) (UniProt P24941+P20248+P78396); test: Inhibition of CDK2/cyclin A at 1 uM; assay type: protein-complex assay
[27] = molecular target: T3, Epidermal growth factor receptor
[28] = molecular target: Serine/threonine-protein kinase Chk1 (Homo sapiens) (UniProt O14757); test: Inhibition of CHEK1 at 1 uM
[29] = molecular target: Tyrosine-protein kinase Fes/Fps (Homo sapiens) (UniProt P07332); test: Inhibition of FES at 1 uM
[30] = molecular target: Serine/threonine-protein kinase B-raf (Homo sapiens, UniProt P15056); test: Inhibition of BRAF
[31] = molecular target: T1, Tyrosine-protein kinase ABL1; test: Inhibition of ABL1
[32] = test system: Mus musculus; test: Inhibition of BRAF-mediated ERK phosphorylation in human A375 cells xenografted nude mouse at 50 mg/kg, iv after 24 hrs; assay type: functional, organism-based; set-up: dose 50 mg/kg; conditions: A-375
[33] = molecular target: Tyrosine-protein kinase JAK2 (Homo sapiens) (UniProt O60674); test: Inhibition of JAK2 at 1 uM
[34] = Half life in nude mouse liver microsomes; assay type: ADME, Microsome
[35] = Drug level in plasma of human A375 cells xenografted nude mouse at 25 mg/kg, po after 24 hrs; assay type: ADME, organism-based, A-375; set-up: dose 25 mg/kg, route oral; conditions: read-out: Drug uptake
[36] = molecular target: Glycogen synthase kinase-3 alpha (Homo sapiens) (UniProt P49840); test: Inhibition of GSK3A at 1 uM
[37] = Inhibition of PRKA at 1 uM
[38] = molecular target: 3-phosphoinositide-dependent protein kinase 1 (Homo sapiens) (UniProt O15530); test: Inhibition of PDK1 at 1 uM
[39] = molecular target: T2, Angiopoietin-1 receptor; test: Inhibition of TEK
[40] = molecular target: Vascular endothelial growth factor receptor 3 (Homo sapiens) (UniProt P35916); test: Inhibition of FLT4 at 1 uM
[41] = molecular target: Fibroblast growth factor receptor 2 (Homo sapiens) (UniProt P21802); test: Inhibition of FGFR2 at 1 uM
[42] = Clearance in nude mouse; assay type: ADME, organism-based; conditions: in vivo
[43] = test system: Serine/threonine-protein kinase B-raf (Homo sapiens), P15056 [V600E]; test: Inhibition of BRAF V600E mutant in human A375 cells assessed as reduction of ERK phosphorylation; assay type: cell-based; conditions: A-375
[44] = molecular target: Tyrosine-protein kinase Lck (Homo sapiens, UniProt P06239); test: Inhibition of LCK at 1 uM
[45] = Drug level in tumor tissue of human A375 cells xenografted nude mouse at 25 mg/kg, po after 6 hrs; assay type: ADME, organism-based, Neoplasm, A-375; set-up: dose 25 mg/kg, route oral; conditions: read-out: Drug uptake
[46] = molecular target: Protein kinase C beta type (Homo sapiens) (UniProt P05771); test: Inhibition of PRKCB2 at 1 uM
[47] = molecular target: Focal adhesion kinase 1 (PTK2) (Homo sapiens) (UniProt Q05397); test: Inhibition of PTK2 at 1 uM
[48] = molecular target: Mitogen-activated protein kinase 14 (Homo sapiens, UniProt Q16539); test: Inhibition of MAPK14
[49] = molecular target: Proto-oncogene tyrosine-protein kinase receptor Ret (Homo sapiens, UniProt P07949); test: Inhibition of RET
[50] = molecular target: Mitogen-activated protein kinase 1 (Homo sapiens) (UniProt P28482); test: Inhibition of MAPK1 at 1 uM
[51] = molecular target: Proto-oncogene tyrosine-protein kinase Src (Homo sapiens) (UniProt P12931); conditions: 1 uM
Description: Inhibition of SRC at 1 uM

[52] = molecular target: Platelet-derived growth factor receptor beta (Homo sapiens) (UniProt P09619); test: Inhibition of PDGFRB at 1 uM

CN1C[C@@H]2C[C@H]1CN2c1cc(F)c(-c2ccnc3c(-c4cccc5[nH]ncc45)c(-c4ccncc4)nn23)c(F)c1
pIC50 [1]: 7.62
inhibition [2]: 70%
inhibition [3]: 5%
concentration at 24 h [4]: 6.1 µM
inhibition [5]: 9%
inhibition [6]: 0%
inhibition [7]: 9%
inhibition [8]: 9%
inhibition [9]: 5%
inhibition [10]: 5%
inhibition [11]: 63%
inhibition [12]: 15%
inhibition [13]: 14%
pIC50 [14]: 7.02
inhibition [15]: 88%
inhibition [16]: 81%
inhibition [17]: 77%
inhibition [18]: 39%
bioavailability [19]: 54%
half-life [20]: 3.5 h
inhibition [21]: 66%
inhibition [22]: 5%
pIC50 [23]: 6.61
inhibition [24]: 14%
half-life [25]: > 0.5 h
inhibition [26]: 4%
pIC50 [27]: 6.76
inhibition [28]: 0%
inhibition [29]: 21%
pIC50 [30]: 9.80
pIC50 [31]: 6.54
inhibition [32]: Active
inhibition [33]: -6%
half-life [34]: > 0.5 h
concentration at 24 h [35]: 0.06 µM
inhibition [36]: 34%
inhibition [37]: 18%
inhibition [38]: 3%
pIC50 [39]: 6.53
inhibition [40]: 17%
inhibition [41]: 66%
clearance [42]: 23 mL/min/kg
inhibition [43]: Active
inhibition [44]: 73%
concentration at 6 h [45]: 6.6 µM
inhibition [46]: 51%
inhibition [47]: 15%
pIC50 [48]: 6.84
pIC50 [49]: 6.80
inhibition [50]: 6%
inhibition [51]: 77%
inhibition [52]: 9%
